Measured values published in US12285501B2, “Compound targeting norepinephrine transporter” (priority 2019, dated 2025).

How the values were obtained:
NET [1] = molecular target: T1, NET (Rattus norvegicus, UniProt Q63380); assay: Ex vivo tissue counting study (heart/tissue distribution ratio) with and without NET blockade; assay type: in vivo; conditions: rats
T1 construct: tissue Japan SLC, Inc., Japan (animals); host or cells: heart (myocardium) of healthy male Wistar rats, in vivo
Method: (§1) Standard protocols and data analysis methods for non-invasive PET imaging of small animals have been established in the working group of the inventors (Rischpler C. et al., Eur J Nucl Med Mol Imaging. 2013; 40(7): 1077-83). Healthy male Wistar rats (Japan SLC, Inc., Japan) each weighing 200-250 g were used. The rats are anaesthetized with 2% isoflurane. 10-20 MBq of the tracer was administered via tail vein injection. Ten minutes after the tracer administration, the animals were immediately euthanized. Hearts, livers and blood were obtained for ex vivo analysis with autoradiography (Typhoon FLA 7000) and tissue counts with γ-counter (1480 WIZARD™ 3″). Following weight and decay correction of tissue counts, the heart to blood (H/B) and heart to liver (H/L) count ratio were calculated, respectively. For autoradiography, the rats were first injected via tail vein either with or without (control) NET blocker phenoxynezamine 50 mg/kg after anaesthesia. After 10 min, the tracer (10-20 MBq) was administered. The hearts were harvested 10 min later, frozen, and cut into 20 μm short axis slices using a cryostat (Cryotome FSE, Thermo Fisher Scientific). To obtain the distribution of the tracer, autoradiography plates (Fuji SR-type image plate, Fujifilm Corporation, Tokyo, Japan) were exposed to the short axis slices immediately for 18 h and thereafter imaged using a digital autoradiographic system (Typhoon FLA 7000).
The columns are the mean value of 2 rats. Data were determined 10 min post injection. Y-axis represents the heart/tissue distribution ratio. […] In comparison, according to Raffel, D. et al., J. Nucl. Med. 2017, 58 (Suppl 1): 96 MHPG and PHPG show tissue concentration ratios at a time frame of 50-60 min imaging as follows: MHPG with H/B 3.6 and H/L 2.3; PHPG with 5.4 and 1.1, respectively.

NET [2] = molecular target: T2, NET (Homo sapiens, UniProt P23975); assay: Tracer cell uptake in SK-N-SH cells with and without NET inhibitor desipramine (DMI); assay type: cell-based; conditions: desipramine 10 μM, 60 min at 37° C.
T2 construct: SK-N-SH cells expressing NET; host or cells: SK-N-SH
T2 sequence (P23975 whole entry): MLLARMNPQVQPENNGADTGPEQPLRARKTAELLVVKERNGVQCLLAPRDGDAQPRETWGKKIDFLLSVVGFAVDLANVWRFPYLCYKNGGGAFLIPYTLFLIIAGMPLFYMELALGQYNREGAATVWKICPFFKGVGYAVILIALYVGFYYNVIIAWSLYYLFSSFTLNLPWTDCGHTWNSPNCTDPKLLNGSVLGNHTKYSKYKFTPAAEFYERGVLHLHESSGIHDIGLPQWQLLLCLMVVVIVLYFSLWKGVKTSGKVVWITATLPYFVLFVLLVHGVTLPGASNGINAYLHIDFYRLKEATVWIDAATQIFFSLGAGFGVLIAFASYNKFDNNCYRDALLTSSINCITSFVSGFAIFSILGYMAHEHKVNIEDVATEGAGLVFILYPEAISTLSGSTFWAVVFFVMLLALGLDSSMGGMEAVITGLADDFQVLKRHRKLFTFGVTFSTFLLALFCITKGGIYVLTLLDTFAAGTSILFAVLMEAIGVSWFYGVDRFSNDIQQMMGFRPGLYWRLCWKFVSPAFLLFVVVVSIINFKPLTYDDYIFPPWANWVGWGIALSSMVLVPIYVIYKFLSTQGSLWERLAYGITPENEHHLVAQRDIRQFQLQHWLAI
Method: (§2) SK-N-SH cells expressing NET were cultivated according to the instructions from the supplier (Sigma-Aldrich Chemie GmbH, Munich, Germany). The cells were transferred to a 12 well plate and incubated in 1 mL EMEM while reaching 2×10^5 cells/well density the day for testing. The medium was removed, and the cells were washed with 1 mL EMEM. A solution of ^18F-AF78 (3.7 kBq) in EMEM (700 μL) was added to each well with or without inhibitors (NE, MHPG, cold AF78 each with a final concentration 100 nM, 1 μM, 10 μM and 100 μM, respectively; Desipramine 10 μM). The plate was incubated for 60 min at 37° C. The cells were washed with ice-cold PBS buffer (1 mL×2) in order to remove unbound tracer. NaOH solution (0.1 N, 500 μL) was added to each well followed by the collection of cell pellet and the measurement in γ-counter (FH412, Frieseke & Höpfner, Erlangen, Germany) using differential energy windows (±20%) for ^18F and ^131I.
After successful radiolabeling, ^18F-AF78 was also tested in SK-N-SH cells in order to check cell uptake. Antidepressant desipramine (DMI) was used as the inhibitor of NET. The addition of DMI blocks cell uptake of tracers specifically transported by NET.

NET [3] = molecular target: T1, NET; assay: Ex vivo autoradiography of left ventricular short axis slices; assay type: in vivo
Method: as §1, with “To obtain the distribution of the tracer, autoradiography plates (Fuji SR-type image plate, Fujifilm Corporation, Tokyo, Japan) were exposed to the short axis slices immediately for 18 h and thereafter imaged using a digital autoradiographic system (Typhoon FLA 7000).” left out

[4] = Static PET images of cardiac uptake in several species; assay type: in vivo; conditions: healthy rats, rabbits, pigs and monkeys
NET [5] = molecular target: T1, NET; assay: Cardiac PET imaging in healthy rats with and without NET blockade; assay type: in vivo
Text: Rats were maintained anaesthetized during the whole experiment by 2% isoflurane. All scans were obtained using a dedicated small-animal PET system (microPET FOCUS 120, SIEMENS, Germany). The PET imaging protocol was designed to assess the systemic and myocardial tracer distribution of ^18F-AF78. Shortly before the injection of 10-20 MBq of ^18F-AF78 via the tail vein, a dynamic PET scan was initiated. In order to evaluate the cardiac uptake mechanism of the tracer, rats were pretreated with phenoxybenzamine (50 mg/kg intravenously, Sigma-Aldrich, Tokyo, Japan). Ten minutes after the pretreatment, 10-20 MBq of ^18F-AF78 was administered via the tail vein. A 10 min dynamic PET session was started shortly before the tracer injection. PET image was acquired in list-mode format. The data were sorted into 3-dimensional sonograms, which were then rebind with a Fourier algorithm to reconstruct dynamic images using a 2-dimensional ordered-subset expectation maximization (OSEM) algorithm. All images were corrected for ^18F decay, random, and dead time; correction for attenuation was not performed (Higuchi JNM 2013). The obtained PET images were analyzed with the public domain tool AMIDE imaging software (A Medical Imaging Data Examiner, version 1.01). […]

NET [6] = assay: Kinetic study in monkeys' hearts (DMI blocking, DMI chase, tyramine chase); assay type: in vivo, monkey
Text: A kinetic study has been performed with ^18F-AF78 in monkeys' hearts. The results confirmed the specific uptake of ^18F-AF78 via NET and stable vesicular storage mechanism in the sympathetic nerve terminals. […] Furthermore, a continuous tyramine (TYR) chase was applied after tracer administration. Tyramine is known as agent causing a catecholamine release thus enhancing tracer washout. […] Decrease was statistically significant (p<0.005) compared to control group (FIG. 18, lower panel).

[7] = Biodistribution study (SUV) in monkey; assay type: in vivo
Method: A further biodistribution study with ^18F-AF78 in monkey has been conducted. […] The liver uptake is decreasing and is lower than cardiac uptake 35 min after tracer administration.

NET [8] = assay: Dynamic PET time-activity curves in Cynomolgus monkey with and without DMI pretreatment; assay type: in vivo
Method: For control, Cynomolgus monkey (male, 5.3 kg) was maintained anaesthetized during the imaging study using 3.3% seboflurane. Shortly before receiving an intravenous injection of the tracer (44 MBq), a 120 min dynamic PET session was started. In addition, to investigate the inhibition of cardiac neuronal uptake-1, DMI (1 mg/kg, iv.) was injected to Cynomolgus monkey (female, 5.6 kg) 10 min before the tracer (18.2 MBq) injection and PET assessment started. PET was conducted using a PCA-2000A positron scanner (Toshiba Medical Systems Corporation, Otawara, Japan). Sinograms were collected with the following pattern: 10 sec×12, 30 sec×6, 300 sec×23. The tissue uptake was determined as arbitrary unit (A.U.), from which a time-activity curves of different organs were generated.
A tissue bio-distribution consistent with that observed in rat could be observed with clear long term and stable cardiac uptake during the total 120 min scan whereas uptake in adjacent liver and lungs was low. Representative time activity curves derived from ^18F-AF78 dynamic images in control and sympathetic nerve blocked monkey were generated from the scanning data. […] In the control, activity in the liver reached a peak a little while after the tracer injection, then decreased slowly to blood level after 60 min.

[9] = time frame of 50-60 min imaging; Raffel et al., J. Nucl. Med. 2017; cited from earlier work
NET [10] = molecular target: T2, NET; assay: Competitive inhibition of 131I-MIBG uptake in SK-N-SH cells expressing NET; assay type: cell-based; conditions: for IC50: non-radioactive compounds, percent of control MIBG uptake
Method: as §2
[drawing 27] were synthesized. The compounds were tested in SK-N-SH cells expressing NET in order to evaluate their competitive binding affinity against ^131I-MIBG. […] Results are expressed as percent of control MIBG uptake. […] (IC50 of AF78 vs. MHPG p value<0.01)
NE and cold MIBG were used as references. As a result, cold reference 2 (AF78) could inhibit the cell uptake of ^131I-MIBG in a concentration-dependent manner. In contrast, cold reference 1 was not able to block the uptake of ^131I-MIBG even at the highest concentration tested. Inhibition was only 40% at 100 μM. […] The introduction of long alkyl chain at 3-position on the benzene ring seems not to be tolerated, whereas introduction at the 4-position seems to be well tolerated.

NET [11] = molecular target: T2, NET; assay: Competitive inhibition of 18F-AF78 uptake in SK-N-SH cells; assay type: cell-based; conditions: percentage of control AF78 uptake
Method: as §2
To further confirm the tracer's binding affinity, ^18F-labeled AF78 was used in competitive inhibition assay, to which different concentrations of NE, MHPG, and cold reference 2 (AF78) were added. […] Results are expressed as percentage of control AF78 uptake. […] (IC50 of MHPG vs. AF78, p value<0.05). […]

[12] = 10 min post injection, control, mean of 2 rats
[13] = PhB 50 mg/kg 10 min before tracer, 10 min post injection

T1 sequence (Q63380 1-617): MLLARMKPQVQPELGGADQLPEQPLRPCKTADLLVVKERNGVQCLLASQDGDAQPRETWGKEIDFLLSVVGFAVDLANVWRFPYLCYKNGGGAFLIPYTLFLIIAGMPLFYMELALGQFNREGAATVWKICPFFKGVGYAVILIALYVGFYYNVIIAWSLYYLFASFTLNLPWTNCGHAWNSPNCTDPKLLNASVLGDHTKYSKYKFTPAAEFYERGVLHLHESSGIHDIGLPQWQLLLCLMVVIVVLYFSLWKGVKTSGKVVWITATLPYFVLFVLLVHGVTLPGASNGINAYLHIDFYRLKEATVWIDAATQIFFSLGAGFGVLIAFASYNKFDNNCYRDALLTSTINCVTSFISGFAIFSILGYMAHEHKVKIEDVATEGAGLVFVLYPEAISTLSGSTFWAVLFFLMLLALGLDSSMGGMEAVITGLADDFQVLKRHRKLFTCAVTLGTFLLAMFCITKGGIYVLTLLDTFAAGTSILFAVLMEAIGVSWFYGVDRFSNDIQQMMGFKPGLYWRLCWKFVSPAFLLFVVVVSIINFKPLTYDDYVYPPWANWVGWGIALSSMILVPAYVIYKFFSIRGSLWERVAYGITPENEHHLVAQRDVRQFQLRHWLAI

## NC(N)=NCCc1ccc(OCCC[18F])c(F)c1 [^18F-AF78]
NET [1]; [12]
  Heart-to-Blood (H/B) ratio: 12.54
  Heart-to-Liver (H/L) ratio: 6.14
NET [1]; PhB 50 mg/kg
  Decline in the H/B ratio by PhB: approximately 6 fold
  Decline in the H/L ratio by PhB: ~5 fold
NET [1]; [13]
  Heart-to-Blood (H/B) ratio after NET blockade: 2.41
  Heart-to-Liver (H/L) ratio after NET blockade: 1.30
NET [2]
  Tracer uptake inhibited by the addition of DMI: 94%
NET [3]; rat LVSA slices, control
  Tracer distribution in myocardium (autoradiography): homogeneous tracer uptake throughout the left ventricular walls
NET [3]; rat, PhB 50 mg/kg i.v. 10 min before tracer
  Tracer distribution after PhB pretreatment (autoradiography): could be inhibited by a pretreatment with phenoxybenzamine
[4]
  Cardiac uptake in static PET images across species: works in all of these species
NET [5]; PhB 50 mg/kg iv 10 min before tracer
  Myocardial tracer uptake after NET blockade, static PET images: significantly decreased the myocardial tracer uptake
NET [5]; no pretreatment
  Myocardial tracer uptake, static PET images: homogeneous and clear tracer uptake throughout the left ventricular wall
NET [6]; DMI injected 10 min after tracer
  Cardiac tracer uptake with DMI chase vs control: no difference can be seen compared to control group
NET [6]; DMI injected 10 min before tracer
  Cardiac tracer uptake with DMI blocking vs control: specifically blocked the tracer uptake with significant difference
NET [6]; continuous tyramine chase after tracer
  Cardiac tracer uptake with tyramine chase vs control: decreased considerable
[7]
  Biodistribution (SUV) result: stable cardiac uptake along with fast blood pool washout and relative fast liver uptake washout
  Time after tracer administration at which liver uptake is lower than cardiac uptake: 35 min
NET [8]; control monkey
  Time after which liver activity decreased to blood level: 60 min
NET [8]; control monkey, 120 min dynamic PET
  Cardiac uptake over scan time: maintained activity throughout the entire 120 min scan time
NET [8]; monkey, DMI 1 mg/kg iv
  Liver uptake after DMI pretreatment: not affected by pretreatment with DMI
NET [8]; monkey, DMI 1 mg/kg iv 10 min before tracer
  Heart uptake after DMI pretreatment: markedly reduced the heart uptake level

## N=C(N)NCc1cccc([131I])c1 [^131I-MIBG, ^123/131I-meta-iodobenzylguanidine, reference compound]
NET [2]
  Tracer uptake inhibited by the addition of DMI: 87%

## N=C(N)NCCc1ccc(O)c([18F])c1 [PHPG, ^18F-3-fluoro-4-hydroxyphenethylguanidine]
[9]
  H/B tissue concentration ratio: 5.4
  H/L tissue concentration ratio: 1.1

## N=C(N)NCCc1ccc(F)c(OCCCF)c1 [cold reference 1]
NET [10]; at 100 μM (highest concentration tested)
  inhibition at 100 µM: 40%

## N=C(N)NCCc1ccc(OCCCF)c(F)c1 [AF78]
NET [11]
  IC50: 2680 ± 830 nM
NET [10]
  IC50: 2570 ± 1370 nM

## ^18F-4-fluoro-3-hydroxyphenethylguanidine [MHPG]
NET [11]
  IC50: 850 ± 630 nM
[9]
  H/B tissue concentration ratio: 3.6
  H/L tissue concentration ratio: 2.3
NET [10]
  IC50: 6800 ± 730 nM
